Experimental data: patent US20240251785A1, “SMALL MOLECULE ANTAGONISTS AND AGONISTS OF ARTHROPOD KININ RECEPTORS FOR PEST CONTROL” (The Texas A&M University System, priority 2021, published 2024)
Read-outs that look alike come from different tables or passages of the source.

Experiments:
[1] = target: recombinant tick kinin receptor (BMLK3) (Rhipicephalus microplus, UniProt Q9NHA4); assay: Dose-response dual-addition calcium fluorescence assay on BMLK3 cells; assay type: cell-based; details: for EC50: read-out: BMLK3 EC50; for validation mark in dose-response assay: Table 3
[2] = system: vector-only (V/O) CHO-K1 cells; assay: Dose-response dual-addition calcium fluorescence assay on vector-only cells; assay type: cell-based
[3] = system: Human dermal fibroblasts (HDF) cells; assay: Cytotoxicity assay (resazurin); assay type: cell-based; details: Human dermal fibroblasts cells; tested at 20 μcool L^−1
[4] = system: R. microplus kinin receptor; assay: High-throughput dual-addition calcium fluorescence screen on BMLK3 cells; assay type: cell-based, Rhipicephalus microplus; details: for agonist NPA (%): compound 2 μmol L^−1, first addition, relative to FFFSWGa 500 nmol L^−1; for antagonist Io (%): compound 2 μmol L^−1, 5 min, then FFFSWGa 500 nmol L^−1
[5] = summary of 36 validated antagonist hits, BMLK3 cells
[6] = summary of 36 validated antagonist hits, BMLK3 cells, read-out: BMLK3 IC50
[7] = summary of 36 validated antagonist hits, vector-only cell (V/O)
[8] = first addition, 20 concentrations 28 nM-25 μM
[9] = second addition Rhimi-K-1 1 μmol L^−1, read-out: BMLK3 IC50
[10] = V/O cells, second addition Rhimi-K-1 1 μmol L^−1, read-out: V/O antagonist IC50

Chain of recombinant tick kinin receptor (BMLK3) (Q9NHA4 entry or part of it): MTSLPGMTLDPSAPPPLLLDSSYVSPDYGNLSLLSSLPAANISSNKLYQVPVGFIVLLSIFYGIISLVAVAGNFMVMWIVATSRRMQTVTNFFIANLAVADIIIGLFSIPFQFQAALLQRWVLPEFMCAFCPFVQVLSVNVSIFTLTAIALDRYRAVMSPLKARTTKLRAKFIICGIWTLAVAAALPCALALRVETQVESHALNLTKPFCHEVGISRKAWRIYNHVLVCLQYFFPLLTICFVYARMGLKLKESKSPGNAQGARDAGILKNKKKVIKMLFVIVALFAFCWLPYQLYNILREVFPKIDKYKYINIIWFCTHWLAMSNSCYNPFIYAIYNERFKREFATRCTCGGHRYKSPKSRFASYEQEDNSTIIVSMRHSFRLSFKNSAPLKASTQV

| SMILES | EC50 [1, 8] | IC50 [1, 9] | EC50 ([2]; V/O cells, first addition) | IC50 [2, 10] | validation mark in dose-response assay [1] | agonist NPA (%) [4] | antagonist Io (%) [4] | other results |
| --- | --- | --- | --- | --- | --- | --- | --- | --- |
| Cc1ccc(S(=O)(=O)Nc2ccc3nc(N)sc3c2)cc1 [SACC-0034373] |  |  |  |  |  |  |  | Inhibitory Efficacy at 12 μM ([1]; BMLK3 cells): 26.16%; EC50 [1, 5]: 1960 nM; IC50 [1, 6]: 6220 nM; EC50 ([1]; virtual hit molecules, dual-addition assay, recombinant tick kinin receptor (BMLK3) cells): 1960 nM; IC50 ([1]; virtual hit molecules, dual-addition assay, recombinant tick kinin receptor (BMLK3) cells, read-out: BMLK3 antagonist IC50): 6220 nM; EC50 [2, 7]: 2490 nM; IC50 [2, 7]: > 25000 nM; EC50 ([2]; virtual hit molecules, dual-addition assay, vector-only cell (V/O)): 2490 nM; IC50 ([2]; virtual hit molecules, dual-addition assay, vector-only cell (V/O), read-out: V/O antagonist IC50): > 25000 nM; HDF average % growth inhibition [3]: −7% |
| O=C1C=CC(Nc2ccc([N+](=O)[O-])cc2)C1Nc1ccc([N+](=O)[O-])cc1 (stereo not shown) [SACC-0121252] | 177 nM | > 25000 nM | > 25000 nM | 2530 nM |  |  |  | Inhibitory Efficacy at 12 μM ([1]; BMLK3 cells): 42.68%; EC50 [1, 5]: 177 nM; IC50 [1, 6]: > 25000 nM; EC50 [2, 7]: > 25000 nM; IC50 [2, 7]: 2530 nM; HDF average % growth inhibition [3]: 4.83% |
| Cc1ccc(S(=O)(=O)NN2C(=O)C(=Cc3ccc(F)cc3)SC2=S)cc1 [SACC-0412063] |  |  |  |  |  |  |  | Inhibitory Efficacy at 12 μM ([1]; BMLK3 cells): 0.61%; activity type in dose-response assay, in words ([1]; BMLK3 cells, Rhimi-K-1 1 μmol L^−1): very weak partial antagonists; EC50 ([1]; Table 5 analogs, first addition): 24200 nM; IC50 ([1]; Table 5 analogs, second addition Rhimi-K-1 1 μmol L^−1, read-out: BMLK3 antagonist IC50): 627 nM; EC50 [1, 5]: 24200 nM; IC50 [1, 6]: 627 nM; EC50 ([2]; Table 5 analogs, V/O cells): 1210 nM; IC50 ([2]; Table 5 analogs, V/O cells, read-out: V/O antagonist IC50): > 25000 nM; EC50 [2, 7]: 1210 nM; IC50 [2, 7]: > 25000 nM; HDF average % growth inhibition [3]: 2.277% |
| COc1ccccc1-n1nnnc1S[C@@H](C)C(=O)c1ccc2c(c1)CCN2C(C)=O [SACC-0095062] | > 25000 nM | > 25000 nM | > 25000 nM | < 28.5 nM | *** (molecules which are either off-target or of low activity (<25 μM)) | 47% |  |  |
| O=C(O)COc1ccccn1 [SACC-0126930] | < 28.5 nM | > 25000 nM | 761 nM | < 28.5 nM | *** (molecules which are either off-target or of low activity (<25 μM)) | 133% |  |  |
| NC(N)=N/C(N)=N\c1ccc(Br)cc1 [SACC-0108986] | 684 nM | 363 nM | 132 nM | 3870 nM | *** (molecules which are either off-target or of low activity (<25 μM)) |  | 53% |  |
| COc1ccccc1NC(=O)c1cn(CCC#N)nc1-c1ccc(C)c(C)c1 [SACC-0095111] | > 25000 nM | 3320 nM | > 25000 nM | 7330 nM | *** (molecules which are either off-target or of low activity (<25 μM)) | 71% |  |  |
| Cc1ccc(-c2ccsc2C(=O)Nc2ccc3c(c2)CCO3)cc1 [SACC-0033336] | 2950 nM | 7170 nM | 4340 nM | > 25000 nM | *** (molecules which are either off-target or of low activity (<25 μM)) | 51% |  |  |
| CCNc1nc(NCc2ccco2)c2ccccc2n1 [SACC-0055093] | 898 nM | 10300 nM | 683 nM | 376 nM | *** (molecules which are either off-target or of low activity (<25 μM)) | 128% |  |  |
| O=C(Nc1ccc(I)cc1)C(Cl)(Cl)Cl [SACC-0062945] | < 28.5 nM | 128 nM | 60.4 nM | 3840 nM | *** (molecules which are either off-target or of low activity (<25 μM)) | 61% |  |  |
| CC1(C)CSC(=NCc2ccccc2)N1C(=O)Cc1noc2ccccc12 [SACC-0024181] | 9010 nM | 252 nM | 8100 nM | 6270 nM | *** (molecules which are either off-target or of low activity (<25 μM)) | 48% |  |  |
| Cc1cc(N=CN(C)C)c2ccccc2n1 [SACC-0068485] | 743 nM | 4150 nM | 3770 nM | 549 nM | *** (molecules which are either off-target or of low activity (<25 μM)) |  | 56% |  |
| CCOc1ccc(NC(=N)/N=c2/nc(C(F)(F)F)cc(C)[nH]2)cc1 [SACC-0060049] | 4550 nM | > 25000 nM | 1930 nM | 243 nM | *** (molecules which are either off-target or of low activity (<25 μM)) | 104% |  |  |
| O=C(CCc1nc(-c2cccs2)no1)Nc1ccc(-n2cnc3ccccc32)nc1 [SACC-0114394] | 12000 nM | 10900 nM | 4190 nM | 4320 nM | *** (molecules which are either off-target or of low activity (<25 μM)) | 152% |  |  |

Second part, led by results:

| EC50 [1, 8] | IC50 [1, 9] | SMILES | EC50 ([2]; V/O cells, first addition) | IC50 [2, 10] | validation mark in dose-response assay [1] | agonist NPA (%) [4] | antagonist Io (%) [4] | other results |
| --- | --- | --- | --- | --- | --- | --- | --- | --- |
| 4320 nM | 6300 nM | CC(C)(C)c1ccc(C(=O)NNC(=S)NC(=O)c2cccnc2)cc1 [SACC-0015467] | 3450 nM | 7100 nM | *** (molecules which are either off-target or of low activity (<25 μM)) | 70% |  |  |
| 1780 nM | 1420 nM | CC(=O)c1cc(C(=O)N[C@H](C)c2nc(-c3cccnc3)n[nH]2)cs1 [SACC-0007370] | < 28.5 nM | > 25000 nM | *** (molecules which are either off-target or of low activity (<25 μM)) |  | 60% |  |
| < 28.5 nM | 225 nM | Cc1oc(S(=O)(=O)N2CCOCC2)cc1C(=O)Nc1ccc(F)cc1 [SACC-0026188] | 154 nM | > 25000 nM | *** (molecules which are either off-target or of low activity (<25 μM)) |  | 67% |  |
| 662 nM | 4600 nM | CC1=C(Cc2ccccc2)C(C)Nc2ccccc2N1 (stereo not shown) [SACC-0026915] | 1000 nM | > 25000 nM | *** (molecules which are either off-target or of low activity (<25 μM)) | 111% |  |  |
| > 25000 nM | 765 nM | Cc1cc2ncn(CCCCSc3ccccc3)c2cc1C [SACC-0025692] | 9540 nM | 112 nM | *** (molecules which are either off-target or of low activity (<25 μM)) |  | 42% |  |
| > 25000 nM | > 25000 nM | COc1ccc(-c2nc(CN3CCN(C(=O)c4ccc5c(c4)NC(=O)[C@H](C)S5)CC3)cs2)cc1 [SACC-0088454] | > 25000 nM | 14400 nM | *** (molecules which are either off-target or of low activity (<25 μM)) |  | 57% |  |
| 281 nM | > 25000 nM | CCCC1=CC(=C2NNC(C)=C2c2ccc(C(=O)OCC)o2)C(O)=CC1=O [SACC-0048694] | 6870 nM | 17500 nM | *** (molecules which are either off-target or of low activity (<25 μM)) |  | 65% |  |
| 974 nM | 1880 nM | COc1ccccc1NC(=O)c1cc2ccccc2cc1OCc1nnnn1C1CC1 [SACC-0095102] | < 28.5 nM | 2210 nM | *** (molecules which are either off-target or of low activity (<25 μM)) | 145% |  |  |
